The numbers were not newly measured in patent publication US5569647A, “Angiopeptin cyclopeptide compounds” (Adir et Compagnie, priority 1993, dated 1996), which cites them from elsewhere.

This data set has as its system cells of the vascular smooth muscle. As to conditions: rat carotid artery, desiccation of the endothelium in air.

Turning to angiopeptin, the “anti-proliferative effect in vivo on cells of the vascular smooth muscle” value is “anti-proliferative effect in vivo”.
